In article PMC12755868, “Recombinant Production, SpeciesSpecific Activity at the TRPA1 Channel, and Significance of the N-Terminal Residue of ProTx-I Toxin from Thrixopelma Pruriens Tarantula Venom” (Acta Naturae, 2025):
Entries after “also recorded” stand apart in the source; their conditions may differ. Positions of bridges follow the written chain, without caps; N, C: chain ends. Residues, ends and D or L forms follow the SMILES beside them.

Assays:
human TRPA1 [1] = biological target: T1, human TRPA1 (Homo sapiens, UniProt O75762); assay: Inhibition of AITC-induced currents through human TRPA1 in X. laevis oocytes (electrophysiology); format: cell-based; settings: for residual current (inhibited currents to): human TRPA1, toxin 10 μM, 100 μM AITC, normalized to response without ProTx-I (100%), n = 3–6 oocytes
T1 construct: expressed in transfected cells; host or cells: Xenopus laevis oocytes (mRNA injection)
Procedure: (§1) Currents through human and rat TRPA1 [21] were recorded in X. laevis oocytes expressing these channels. Oocyte isolation, mRNA injection, and experimental recordings have been described previously. All solutions were prepared on the day of the experiment using calcium-free ND-96 containing 96 mM NaCl, 2 mM KCl, 1 mM MgCl2 , and 10 mM HEPES at pH 7.4. Currents were stimulated by the application 100 μM AITC (Sigma-Aldrich). The solution was manually added to the perfusion chamber, and the currents were recorded using voltage ramps as reported in [22]. For each oocyte, we sequentially recorded three responses to AITC application, as well as the subsequent leakage current in the presence of a specific TRPA1 inhibitor: HC030031 (Sigma-Aldrich). The first response amplitude was used to normalize the data obtained on different oocytes. To induce the second response, AITC was applied together with ProTx-I or HC030031. The amplitude of this response was measured, normalized, averaged across different oocytes, and used to plot dose-response curves. Dose-response curves were approximated by the Hill equation: […]
where nH is the Hill coefficient.
Statistical data processing was performed using GraphPad Prism 9.0. To compare current amplitudes at specific toxin concentrations, either a two-tailed Student’s t-test or one-way ANOVA and Dunnett’s multiple comparison test was used. Dose-response curve parameters were compared using the F-test.
Fig. 4 Effect of ProTx-I variants on AITC-induced outward currents through TRPA1 in X. laevis oocytes. (A) Average normalized current traces for the human TRPA1 channel in the absence and presence of the selective antagonist HC030031 or ProTx-I. Data are presented as mean ± SEM (lines and shaded areas, respectively, n = 3–6 oocytes). Compound application periods are shown by solid black bars above the traces. […] (C) Dose-response curves for recombinant rProTx-I at human (hTRPA1) and rat (rTRPA1) ion channels. […] Data in B and C (mean ± SEM, n = 3–6 oocytes) are normalized to the response recorded without ProTx-I (100%)

rat TRPA1 = biological target: T2, rat TRPA1 (Rattus norvegicus, UniProt Q6RI86); assay: Inhibition of AITC-induced currents through rat TRPA1 in X. laevis oocytes (electrophysiology); format: cell-based
T2 construct: expressed in transfected cells; host or cells: Xenopus laevis oocytes (mRNA injection)
Procedure: as §1
where nH is the Hill coefficient. […]
Fig. 4 Effect of ProTx-I variants on AITC-induced outward currents through TRPA1 in X. laevis oocytes. […] Data in B and C (mean ± SEM, n = 3–6 oocytes) are normalized to the response recorded without ProTx-I (100%)

[2] = test system: voltage-gated sodium (NaV), potassium, and calcium channels; settings: cited from earlier work
Source text: Due to its action at the NaV1.7, NaV1.8, and TRPA1 channels involved in pain perception and propagation, ProTx-I may be used as a model for the development of next-generation analgesics. ProTx-I consists of 35 amino acid residues, with three disulfide bonds forming an inhibitor cystine knot (ICK) motif, which challenges its heterologous production. An efficient Pro ... || Spider knottins include membrane-active toxins that affect the activation or inactivation of sodium (NaV), potassium, and calcium voltage-gated channels (so-called gating modifier toxins). The ProTx-I toxin (Protoxin-I or β/ω-theraphotoxin-Tp1a, 35 aa) is a membrane-active knottin of the Peruvian green velvet tarantula Thrixopelma pruriens. […] Among the ProTx-I targets, NaV1.7, NaV1.8, and TRPA1 channels are promising therapeutic targets for the treatment of pain and neu ...

human TRPA1 [3] = biological target: T1, human TRPA1; settings: cited from earlier work
Source text: In the present study, we compared the functional activity of Met-ProTx-I and ProTx-I, with the latter being produced by hydrolysis of 6His-Met-ProTx-I, at the human TRPA1 channel expressed in X. laevis oocytes.

T1 sequence (O75762 whole entry): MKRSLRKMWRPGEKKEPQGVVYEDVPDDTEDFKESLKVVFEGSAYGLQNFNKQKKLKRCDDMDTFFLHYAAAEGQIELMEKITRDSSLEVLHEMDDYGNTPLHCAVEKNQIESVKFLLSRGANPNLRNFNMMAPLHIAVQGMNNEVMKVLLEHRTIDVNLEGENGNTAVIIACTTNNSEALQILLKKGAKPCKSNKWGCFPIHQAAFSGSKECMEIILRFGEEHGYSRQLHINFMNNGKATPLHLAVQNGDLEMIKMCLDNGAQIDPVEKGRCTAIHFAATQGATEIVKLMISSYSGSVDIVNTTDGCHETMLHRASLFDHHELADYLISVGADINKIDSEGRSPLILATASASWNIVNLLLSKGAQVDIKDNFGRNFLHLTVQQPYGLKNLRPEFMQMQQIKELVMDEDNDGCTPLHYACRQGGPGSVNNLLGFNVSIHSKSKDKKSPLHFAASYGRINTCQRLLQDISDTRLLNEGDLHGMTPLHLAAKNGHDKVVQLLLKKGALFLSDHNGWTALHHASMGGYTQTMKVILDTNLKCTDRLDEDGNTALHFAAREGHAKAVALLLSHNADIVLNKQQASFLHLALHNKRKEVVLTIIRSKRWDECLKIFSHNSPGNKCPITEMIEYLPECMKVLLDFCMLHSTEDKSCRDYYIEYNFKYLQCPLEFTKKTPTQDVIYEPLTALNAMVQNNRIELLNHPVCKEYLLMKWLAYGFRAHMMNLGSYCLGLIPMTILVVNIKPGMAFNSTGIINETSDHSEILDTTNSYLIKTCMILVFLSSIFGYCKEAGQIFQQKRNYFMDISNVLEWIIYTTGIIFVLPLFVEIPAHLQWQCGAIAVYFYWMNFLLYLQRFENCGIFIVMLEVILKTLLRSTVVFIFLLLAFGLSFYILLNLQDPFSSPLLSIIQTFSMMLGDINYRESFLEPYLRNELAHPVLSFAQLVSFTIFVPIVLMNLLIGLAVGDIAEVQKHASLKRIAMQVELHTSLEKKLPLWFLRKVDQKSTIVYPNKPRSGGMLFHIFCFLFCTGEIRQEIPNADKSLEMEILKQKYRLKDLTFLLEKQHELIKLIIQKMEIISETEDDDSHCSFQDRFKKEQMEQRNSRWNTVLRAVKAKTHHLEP
T2 sequence (Q6RI86 whole entry): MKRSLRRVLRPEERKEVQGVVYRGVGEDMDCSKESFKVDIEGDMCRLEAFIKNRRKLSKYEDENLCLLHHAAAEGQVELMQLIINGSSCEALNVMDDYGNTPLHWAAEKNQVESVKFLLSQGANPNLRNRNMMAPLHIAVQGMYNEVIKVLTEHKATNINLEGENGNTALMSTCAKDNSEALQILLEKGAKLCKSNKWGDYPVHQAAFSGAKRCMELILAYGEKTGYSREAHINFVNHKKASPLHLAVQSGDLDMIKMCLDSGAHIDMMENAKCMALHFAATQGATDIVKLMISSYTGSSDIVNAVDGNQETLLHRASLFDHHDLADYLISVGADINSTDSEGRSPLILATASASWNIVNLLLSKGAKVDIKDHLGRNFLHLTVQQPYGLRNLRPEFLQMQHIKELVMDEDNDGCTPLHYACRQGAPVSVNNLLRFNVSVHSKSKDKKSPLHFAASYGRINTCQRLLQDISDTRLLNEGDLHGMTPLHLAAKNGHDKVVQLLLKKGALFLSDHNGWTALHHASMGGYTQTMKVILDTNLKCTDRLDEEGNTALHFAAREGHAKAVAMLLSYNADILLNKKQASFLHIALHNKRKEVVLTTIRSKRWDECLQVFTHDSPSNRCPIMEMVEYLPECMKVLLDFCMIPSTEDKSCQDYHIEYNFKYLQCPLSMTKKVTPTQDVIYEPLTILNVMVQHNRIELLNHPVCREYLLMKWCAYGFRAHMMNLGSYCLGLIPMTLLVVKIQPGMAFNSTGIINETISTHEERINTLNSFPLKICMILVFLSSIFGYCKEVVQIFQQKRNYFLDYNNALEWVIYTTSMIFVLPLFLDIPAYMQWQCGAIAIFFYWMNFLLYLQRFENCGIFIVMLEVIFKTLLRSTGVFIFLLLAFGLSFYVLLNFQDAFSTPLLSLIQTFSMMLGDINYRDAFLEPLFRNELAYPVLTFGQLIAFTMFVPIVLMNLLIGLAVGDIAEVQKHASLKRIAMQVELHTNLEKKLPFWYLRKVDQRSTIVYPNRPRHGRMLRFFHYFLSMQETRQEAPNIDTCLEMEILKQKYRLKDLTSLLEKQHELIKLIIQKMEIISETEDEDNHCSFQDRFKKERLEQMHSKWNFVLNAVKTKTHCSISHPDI

## CC(C)C[C@@H]1NC(=O)[C@H](Cc2c[nH]c3ccccc23)NC(=O)[C@H](Cc2ccc(O)cc2)NC(=O)[C@H](CCCNC(=N)N)NC(=O)[C@@H](NC(=O)[C@@H](N)CCC(=O)O)CSSC[C@@H]2NC(=O)[C@@H]3CSSC[C@@H](C(=O)N[C@H](C(=O)N[C@@H](Cc4c[nH]c5ccccc45)C(=O)N[C@@H](CC(=O)O)C(=O)NCC(=O)N[C@H](C(=O)N[C@@H](Cc4ccccc4)C(=O)N[C@@H](CO)C(=O)O)[C@@H](C)O)C(C)C)NC(=O)[C@H](Cc4c[nH]c5ccccc45)NC(=O)CNC(=O)[C@H](Cc4c[nH]cn4)NC(=O)[C@H](CCCNC(=N)N)NC(=O)[C@H](CCCNC(=N)N)NC(=O)[C@H](CO)NC(=O)[C@H](CSSC[C@H](NC(=O)CNC(=O)CNC1=O)C(=O)N[C@@H](CO)C(=O)N[C@@H](C)C(=O)NCC(=O)N[C@@H](CCC(N)=O)C(=O)N[C@@H]([C@@H](C)O)C(=O)N3)NC(=O)[C@H](C(C)C)NC(=O)[C@H](CC(C)C)NC(=O)[C@H](Cc1c[nH]cn1)NC(=O)[C@H](CCCCN)NC2=O [rProTx-I]
Human TRPA1 [1]
  IC50: 840 ± 190 nM
  residual current (inhibited currents to): ~ 5%
Rat TRPA1; rTRPA1 in X. laevis oocytes, outward currents induced by 100 μM AITC, calcium-free ND-96, pH 7.4, voltage ramps, Hill equation fit, n = 3–6 oocytes, rat vs human p = 0.006 (F-test)
  IC50: 250 ± 70 nM

## ProTx-I
Rat TRPA1; rat versus human TRPA1, difference in IC50 p = 0.006 (F-test)
  species selectivity, rat versus human TRPA1 (in words): different activities relative to human and rat TRPA1 channels
[2]
  inhibition of voltage-gated channels (in words): inhibits voltage-gated sodium (NaV), potassium, and calcium channels; also recorded: effectively inhibits a number of voltage-gated channels
Human TRPA1 [3]
  species selectivity, human versus mouse TRPA1 (in words): higher activity at the human channel

## CSCC[C@H](N)C(=O)N[C@@H](CCC(=O)O)C(=O)N[C@H]1CSSC[C@@H]2NC(=O)[C@@H]3CSSC[C@@H](C(=O)N[C@H](C(=O)N[C@@H](Cc4c[nH]c5ccccc45)C(=O)N[C@@H](CC(=O)O)C(=O)NCC(=O)N[C@H](C(=O)N[C@@H](Cc4ccccc4)C(=O)N[C@@H](CO)C(=O)O)[C@@H](C)O)C(C)C)NC(=O)[C@H](Cc4c[nH]c5ccccc45)NC(=O)CNC(=O)[C@H](Cc4c[nH]cn4)NC(=O)[C@H](CCCNC(=N)N)NC(=O)[C@H](CCCNC(=N)N)NC(=O)[C@H](CO)NC(=O)[C@H](CSSC[C@H](NC(=O)CNC(=O)CNC(=O)[C@H](CC(C)C)NC(=O)[C@H](Cc4c[nH]c5ccccc45)NC(=O)[C@H](Cc4ccc(O)cc4)NC(=O)[C@H](CCCNC(=N)N)NC1=O)C(=O)N[C@@H](CO)C(=O)N[C@@H](C)C(=O)NCC(=O)N[C@@H](CCC(N)=O)C(=O)N[C@@H]([C@@H](C)O)C(=O)N3)NC(=O)[C@H](C(C)C)NC(=O)[C@H](CC(C)C)NC(=O)[C@H](Cc1c[nH]cn1)NC(=O)[C@H](CCCCN)NC2=O [Met-ProTx-I] (H-MECRYWLGGCSAGQTCCKHLVCSRRHGWCVWDGTFS-OH; disulfide 3-17, 10-22, 16-29)
Human TRPA1 [1]
  IC50: 8900 ± 7000 nM
  residual current (inhibited currents to): ~ 60%

## CC(C)C[C@@H]1NC(=O)[C@H](Cc2c[nH]c3ccccc23)NC(=O)[C@H](Cc2ccc(O)cc2)NC(=O)[C@H](CCCNC(=N)N)NC(=O)[C@@H](NC(=O)[C@@H](N)CCC(=O)O)CSSC[C@@H]2NC(=O)[C@@H]3CSSC[C@@H](C(=O)N[C@H](C(=O)N[C@@H](Cc4c[nH]c5ccccc45)C(=O)N[C@@H](CC(=O)O)C(=O)NCC(=O)N[C@H](C(=O)N[C@@H](Cc4ccccc4)C(=O)N[C@@H](CO)C(=O)O)[C@@H](C)O)C(C)C)NC(=O)[C@H](Cc4c[nH]c5ccccc45)NC(=O)CNC(=O)[C@H](Cc4c[nH]cn4)NC(=O)[C@H](CCCNC(=N)N)NC(=O)[C@H](CCCNC(=N)N)NC(=O)[C@H](CO)NC(=O)[C@H](CSSC[C@H](NC(=O)CNC(=O)CNC1=O)C(=O)N[C@@H](CO)C(=O)N[C@@H](C)C(=O)NCC(=O)N[C@@H](CCC(N)=O)C(=O)N[C@@H]([C@@H](C)O)C(=O)N3)NC(=O)[C@H](C(C)C)NC(=O)[C@H](CC(C)C)NC(=O)[C@H](Cc1c[nH]cn1)NC(=O)[C@H](CCCCN)NC2=O [ProTx-I (Smartox)]
Human TRPA1 [1]
  IC50: 410 ± 160 nM
  residual current (inhibited currents to): ~ 5%

## CC(C)c1ccc(NC(=O)Cn2cnc3c2c(=O)n(C)c(=O)n3C)cc1 [HC030031]
Human TRPA1 [1]
  inhibition of current through TRPA1 (in words): This effect was similar to that of 50 μM HC0300301
